Data: US4929612A, “Thiadiazolylacetamide cephem derivatives” (Eisai Co., Ltd., priority 1987, dated 1990)
Converted amounts (≈) assume the structure as drawn. Where two headings read alike, the source gives them in different places.

What was measured:
Ser. marcescens ES-75 = test: anti-bacterial activity, MIC, Ser. marcescens ES-75; type: cell-based; settings: Serratia marcescens, ES75
Excerpt: (§1) Test bacterium MIC (μg/ml) Inoculum size 10^6 CFU/ml

Staph. aureus 209-P = test: anti-bacterial activity, MIC, Staph. aureus 209-P; type: cell-based; settings: Staphylococcus aureus, inoculum size 10^6 CFU/ml
Excerpt: as §1

[1] = Acute toxicity, LD50 (mouse, intravenous injection); settings: in vivo
Excerpt: Acute toxicity [LD50 (mouse, intravenous injection)] of the following compounds was more than 3 g/kg, respectively.

Pseud. aeruginosa EP-01 = test: anti-bacterial activity, MIC, Pseud. aeruginosa EP-01; type: cell-based; settings: Pseudomonas aeruginosa, EP01, inoculum size 10^6 CFU/ml
Excerpt: as §1

Kleb. pneumoniae EK-6 = test: anti-bacterial activity, MIC, Kleb. pneumoniae EK-6; type: cell-based; settings: Klebsiella pneumoniae, EK6
Excerpt: as §1

[2] = system: Morganella morganii EP-14; test: anti-bacterial activity, MIC, Morganella morganii EP-14; type: cell-based; settings: EP14, inoculum size 10^6 CFU/ml
Excerpt: as §1

Escher. coli NIHJ = test: anti-bacterial activity, MIC, Escher. coli NIHJ; type: cell-based; settings: Escherichia coli, inoculum size 10^6 CFU/ml
Excerpt: as §1

[3] = Ser. marcescens ES-75, inoculum size 10^6 CFU/ml, read-out: MIC
[4] = Kleb. pneumoniae EK-6, inoculum size 10^6 CFU/ml, read-out: MIC

Row | Structure (SMILES) | MIC (Ser. marcescens ES-75; [3]) [µg/mL] | MIC (Staph. aureus 209-P) [µg/mL] | MIC (Pseud. aeruginosa EP-01) [µg/mL] | MIC (Kleb. pneumoniae EK-6; [4]) [µg/mL] | MIC [2] [µg/mL] | MIC (Escher. coli NIHJ) [µg/mL] | LD50 [1] [mg/kg] | MIC (Ser. marcescens ES-75) [µg/mL] | MIC (Kleb. pneumoniae EK-6) [µg/mL]
1 | NC(=O)C12CC[N+](CC3=C(C(=O)[O-])N4C(=O)[C@@H](NC(=O)/C(=N\OCF)c5nsc(N)n5)[C@H]4SC3)(CC1)CC2 [Example 1, 7β-[2-(5-Amino-1,2,4-thiadiazol-3-yl)-(Z)-2-fluoromethoxyiminoacetamido]-3-(4-carbamoyl-1-quinuclidinio)methyl-3-cephem-4-carboxylate] | 0.1 (≈ 0.176 µM) | 1.56 (≈ 2.74 µM) | 0.4 (≈ 0.703 µM) | 0.05 (≈ 0.0879 µM) | 0.05 (≈ 0.0879 µM) | 0.05 (≈ 0.0879 µM) | > 3000 | – | –
2 | CC12CC[N+](CC3=C(C(=O)[O-])N4C(=O)[C@@H](NC(=O)/C(=N\OCF)c5nsc(N)n5)[C@H]4SC3)(CC1)CC2 [Example 2, 7β-[2-(5-Amino-1,2,4-thiadiazol-3-yl)-(Z)-2-fluoromethoxyiminoacetamido]-3-(4-methyl-1-quinuclidinio)methyl-3-cephem-4-carboxylate] | – | 0.8 (≈ 1.48 µM) | 0.8 (≈ 1.48 µM) | 0.05 (≈ 0.0927 µM) | 0.1 (≈ 0.185 µM) | 0.05 (≈ 0.0927 µM) | – | 0.1 (≈ 0.185 µM) | –
3 | Nc1nc(/C(=N/OCF)C(=O)N[C@@H]2C(=O)N3C(C(=O)[O-])=C(C[N+]45CCC(O)(CC4)C5)CS[C@H]23)ns1 [Example 3, 7β-[2-(5-Amino-1,2,4-thiadiazol-3-yl)-(Z)-2-fluoromethoxyiminoacetamido]-3-(4-hydroxy-1,4-methylene-1-piperidinio)methyl-3-cephem-4-carboxylate] | 0.1 (≈ 0.19 µM) | 0.4 (≈ 0.758 µM) | 0.8 (≈ 1.52 µM) | – | 0.05 (≈ 0.0948 µM) | 0.05 (≈ 0.0948 µM) | > 3000 | – | 0.1 (≈ 0.19 µM)
4 | C[N+](C)(CCC(N)=O)CC1=C(C(=O)[O-])N2C(=O)[C@@H](NC(=O)/C(=N\OCF)c3nsc(N)n3)[C@H]2SC1 [Example 5, 7β-[2-(5-Amino-1,2,4-thiadiazol-3-yl)-(Z)-2-fluoromethoxyiminoacetamido]-3-[N,N-dimethyl-N-(2-carbamoyl)ethylammonio]methyl-3-cephem-4-carboxylate] | – | 1.56 (≈ 2.94 µM) | 1.56 (≈ 2.94 µM) | ≤ 0.025 | 0.05 (≈ 0.0942 µM) | ≤ 0.025 | – | 0.1 (≈ 0.188 µM) | –
5 | Nc1nc(/C(=N/OCF)C(=O)N[C@@H]2C(=O)N3C(C(=O)[O-])=C(C[N+](CCO)(CCO)CCO)CS[C@H]23)ns1 [Example 7, 7β-[2-(5-Amino-1,2,4-thiadiazol-3-yl)-(Z)-2-fluoromethoxyiminoacetamido]-3-[tris(2-hydroxyethyl)ammonio]methyl-3-cephem-4-carboxylate] | 0.4 (≈ 0.71 µM) | 6.25 (≈ 11.1 µM) | 3.13 (≈ 5.55 µM) | 0.1 (≈ 0.177 µM) | 0.1 (≈ 0.177 µM) | 0.1 (≈ 0.177 µM) | – | – | –
6 | Nc1nc(/C(=N/OCF)C(=O)N[C@@H]2C(=O)N3C(C(=O)[O-])=C(C[N+]45CCC(CO)(CC4)CC5)CS[C@H]23)ns1 [Example 11, 7β-[2-(5-Amino-1,2,4-thiadiazol-3-yl)-(Z)-2-fluoromethoxyiminoacetamido]-3-(4-hydroxylmethyl-1-quinuclidinio)methyl-3-cephem-4-carboxylate] | 0.1 (≈ 0.18 µM) | 0.8 (≈ 1.44 µM) | 0.4 (≈ 0.72 µM) | ≤ 0.025 | ≤ 0.025 | ≤ 0.025 | > 3000 | – | –

Second part, led by results:

Row | MIC (Ser. marcescens ES-75; [3]) [µg/mL] | MIC (Staph. aureus 209-P) [µg/mL] | MIC (Pseud. aeruginosa EP-01) [µg/mL] | MIC (Kleb. pneumoniae EK-6; [4]) [µg/mL] | MIC [2] [µg/mL] | MIC (Escher. coli NIHJ) [µg/mL] | Structure (SMILES) | LD50 [1] [mg/kg] | MIC (Ser. marcescens ES-75) [µg/mL] | MIC (Kleb. pneumoniae EK-6) [µg/mL]
7 | 0.05 (≈ 0.1 µM) | 0.8 (≈ 1.6 µM) | 0.8 (≈ 1.6 µM) | 0.05 (≈ 0.1 µM) | ≤ 0.025 | ≤ 0.025 | C[N+]1(CC2=C(C(=O)[O-])N3C(=O)[C@@H](NC(=O)/C(=N\OCF)c4nsc(N)n4)[C@H]3SC2)CCCC1 [Example 4, 7β-[2-(5-Amino-1,2,4-thiadiazol-3-yl)-(Z)-2-fluoromethoxyiminoacetamido]-3-(1-methyl-1-pyrrolidinio)methyl-3-cephem-4-carboxylate] | – | – | –
8 | 0.1 (≈ 0.18 µM) | 1.56 (≈ 2.81 µM) | 0.8 (≈ 1.44 µM) | 0.05 (≈ 0.0902 µM) | 0.05 (≈ 0.0902 µM) | 0.05 (≈ 0.0902 µM) | C[N+]1(CC2=C(C(=O)[O-])N3C(=O)[C@@H](NC(=O)/C(=N\OCF)c4nsc(N)n4)[C@H]3SC2)CC=C(C(N)=O)CC1 (stereo partly drawn) [Example 6, 7β-[2-(5-Amino-1,2,4-thiadiazol-3-yl)-(Z)-2-fluoromethoxyiminoacetamido]-3-(4-carbamoyl-1-methyl-1,2,3,6-tetrahydropyridinio)methyl-3-cephem-4-carboxylate] | – | – | –
9 | 0.05 (≈ 0.0928 µM) | 0.4 (≈ 0.743 µM) | 0.8 (≈ 1.49 µM) | 0.05 (≈ 0.0928 µM) | 0.05 (≈ 0.0928 µM) | ≤ 0.025 | Nc1nc(/C(=N/OCF)C(=O)N[C@@H]2C(=O)N3C(C(=O)[O-])=C(C[n+]4ccc5n4CCOC5)CS[C@H]23)ns1 [Example 8, 7β-[2-(5-Amino-1,2,4-thiadiazol-3-yl)-(Z)-2-fluoromethoxyiminoacetamido]-3-[1-morpholino-[4,3-b]pyrazolio]methyl-3-cephem-4-carboxylate] | – | – | –
10 | 0.05 (≈ 0.095 µM) | 0.4 (≈ 0.76 µM) | 0.8 (≈ 1.52 µM) | 0.05 (≈ 0.095 µM) | 0.05 (≈ 0.095 µM) | 0.05 (≈ 0.095 µM) | Nc1nc(/C(=N/OCF)C(=O)N[C@@H]2C(=O)N3C(C(=O)[O-])=C(C[n+]4cccn4CCO)CS[C@H]23)ns1 [Example 9, 7β-[2-(5-Amino-1,2,4-thiadiazol-3-yl)-(Z)-2-fluoromethoxyiminoacetamido]-3-[2-(2-hydroxyethyl)-1-pyrazolio]methyl-3-cephem-4-carboxylate] | – | – | –
11 | 0.05 (≈ 0.0932 µM) | 0.4 (≈ 0.745 µM) | 0.8 (≈ 1.49 µM) | ≤ 0.025 | 0.05 (≈ 0.0932 µM) | ≤ 0.025 | Nc1nc(/C(=N/OCF)C(=O)N[C@@H]2C(=O)N3C(C(=O)[O-])=C(C[n+]4ccc5n4CCCC5)CS[C@H]23)ns1 [Example 10, 7β-[2-(5-Amino-1,2,4-thiadiazol-3-yl)-(Z)-2-fluoromethoxyiminoacetamido]-3-[1-(2,3-tetramethylene)pyrazolio]methyl-3-cephem-4-carboxylate] | – | – | –
